Reference: ChEMBL document CHEMBL1201862, “PubChem BioAssay data set” (2004)
Activity calls are given as the source filed them.

What was measured:
[1] = P. falciparum late gametocyte killing, dose response, luminescence (AID 1117278); assay type: functional, cell-based;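 also: gametocytes exposed to compound for 24 hours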
[2] = Jurkat T cell cytotoxicity, dose response, cytotoxicity control for P. falciparum gametocyte viability project, luminescence (AID 1117277); assay type: functional, cell-based;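 also: potency reflects loss of cellular ATP meaning fewer viable cells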
[3] = Luminescence-based cell-based high throughput dose response assay to identify activators of the DAF-12 from the parasite S. stercoralis (ssDAF-12).; assay type: functional
[4] = target: T1, Oxysterols receptor LXR-beta (Homo sapiens, UniProt P55055); assay: LXR agonists, Gal4 luciferase reporter, dose response, counter-screen for ssDAF-12 agonist project, cell-based, luminescence, HEK293, S. stercoralis campaign (AID 720737); assay type: functional; conditions: read-out: IC50 (the source's name)
T1 sequence (P55055 whole entry): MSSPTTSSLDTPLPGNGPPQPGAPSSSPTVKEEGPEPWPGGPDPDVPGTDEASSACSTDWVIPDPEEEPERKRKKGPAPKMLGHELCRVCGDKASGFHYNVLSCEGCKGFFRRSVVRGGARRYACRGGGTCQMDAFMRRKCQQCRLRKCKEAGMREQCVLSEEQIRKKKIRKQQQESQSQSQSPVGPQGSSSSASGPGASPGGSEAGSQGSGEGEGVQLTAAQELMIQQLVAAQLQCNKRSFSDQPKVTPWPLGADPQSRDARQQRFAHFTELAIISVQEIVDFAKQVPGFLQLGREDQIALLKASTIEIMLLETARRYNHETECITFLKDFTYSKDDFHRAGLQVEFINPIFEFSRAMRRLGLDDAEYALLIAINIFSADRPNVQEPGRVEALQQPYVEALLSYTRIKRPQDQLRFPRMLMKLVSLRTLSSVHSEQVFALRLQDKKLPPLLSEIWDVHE

[5] = Vero cell cytotoxicity, dose response, cytotoxicity control for Vif-APOBEC3G degradation inhibitor project, Vero cells (AID 1117358); assay type: functional; conditions: Human immunodeficiency virus 1, Vero
[6] = target: RNA-editing ligase 1, mitochondrial (Trypanosoma brucei brucei, UniProt P86926); assay: TbREL1 ligase inhibitors, dose response, biochemical, fluorescence, Trypanosoma brucei (AID 1117295); assay type: functional
Protein Tat = Protein Tat (Human immunodeficiency virus type 1 group M subtype B (isolate HXB2)(HIV-1), UniProt P04608); assay type: functional;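 also: tat binding to TAR RNA read out by fluorescence polarization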
[7] = inhibitors of Vif binding to APOBEC3G peptide, primary screen, biochemical, TR-FRET, GST-Vif 1-94, biotin-A3G peptide, dose response retest (AID 1117319); assay type: functional;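 also: TR-FRET signal of purified GST-Vif binding a biotinylated A3G peptide; inhibitors lower the FRET signal by blocking Vif and A3G binding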
[8] = A549 cell cytotoxicity, dose response, cytotoxicity control, plate reader, dry powder, set 6 (AID 743312); assay type: functional, cell-based
Paired box protein Pax-8 = Paired box protein Pax-8 (Homo sapiens, UniProt Q06710); assay: inhibitors of PAX8-driven TPO luciferase reporter, dose response, RMG-I cells, cherry-pick (AID 687027); assay type: functional, cell-based;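 also: luciferase reporter driven by Pax8 target thyroperoxidase promoter measured by SteadyGlo luminescence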
[9] = NIH:OVCAR-3 ovarian cancer cell cytotoxicity, dose response, PAX8 inhibitor project, plate reader, dry powder samples (AID 743044); assay type: functional, cell-based
[10] = non-specific cell cytotoxicity, dose response, cytotoxicity control for PAX8 inhibitor project, plate reader, dry powder samples (AID 743021); assay type: functional, cell-based
[11] = cytotoxicity in OVCAR8 ovarian cancer cells, dose response, PAX8 project, cell-based, plate reader, dry powder samples (AID 743197); assay type: functional; conditions: OVCAR-8
[12] = P. falciparum 3D7-ScDHODH growth inhibitors, dose response, SYBR Green, dry powder samples (AID 1159570); assay type: functional, cell-based;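 also: parasite growth measured after 72 hours of compound exposure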
[13] = HepG2 cell cytotoxicity, dose response, cytotoxicity control, plate reader, dry powder samples (AID 1159569); assay type: functional, cell-based;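 also: inhibitor potency with signal falling toward the positive control level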
[14] = P. falciparum Dd2 growth inhibitors, dose response, SYBR Green, cherry-picked samples (AID 1159567); assay type: functional, cell-based
[15] = P. falciparum Dd2 growth inhibitors, dose response, SYBR Green, dry powder samples (AID 1159566); assay type: functional, cell-based;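 also: potency for growth inhibition with lower SYBR green DNA signal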
[16] = HepG2 cell cytotoxicity, dose response, cytotoxicity control, cherry-picked samples (AID 1159577); assay type: functional, cell-based
[17] = P. falciparum ATP4 D1247Y mutant growth inhibitors, dose response, NITD609-resistant line, SYBR Green, dry powder (AID 1159571); assay type: functional, cell-based;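 also: parasites synchronized at ring stage by sorbitol before testing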
[18] = HeLa 2N DNA content increase, dose response, cell-based, IC50 (AID 1117349); assay type: functional
[19] = Concentration-dependent survival of SW480 colon cancer line, luminescence detection with CellTiter-Glo, half-maximal inhibitory concentration (AID 1117338); assay type: functional
[20] = Dose-response inhibition of insulin secretion in a rat insulinoma line at 5 mM glucose (AID 1117331); assay type: functional, cell-based; conditions: INS-1E
[21] = RKO cell viability reduction, dose response, CellTiter-Glo luminescence (AID 1117322); assay type: functional
[22] = cytotoxicity toward HCT116 cells – cell-based, CellTiter-Glo luminescence, IC50, dose response (AID 1117332); assay type: functional; conditions: HCT-116
[23] = SNU-C1 cell viability reduction, dose response, CellTiter-Glo luminescence (AID 1117323); assay type: functional, cell-based
[24] = half-maximal inhibitory concentration for glucagon-like peptide-1 release, STC-1 cell line, dose-response (AID 1117345); assay type: functional, cell-based
[25] = cytotoxicity toward Colo320 cells – cell-based, CellTiter-Glo luminescence, IC50, dose response (AID 1117334); assay type: functional; conditions: COLO 320
[26] = HeLa 4N DNA content increase, dose response, cell-based, IC50 (AID 1117351); assay type: functional
[27] = cytotoxicity toward HT-29 cells – cell-based, CellTiter-Glo luminescence, IC50, dose response (AID 1117330); assay type: functional
[28] = CellTiter-Glo luminescent dose response of DLD-1 viability loss (AID 1117352); assay type: functional
[29] = HCT116 cell viability decrease, GSK3B pretreatment – CellTiter-Glo, IC50, dose response (AID 1117339); assay type: functional; conditions: HCT-116
[30] = Glucagon-like peptide 1 release potency, NCI-H716 cell line, dose-response, half-maximal inhibitory concentration (AID 1117344); assay type: functional, cell-based
[31] = target: T2, Low molecular weight phosphotyrosine protein phosphatase (Homo sapiens, UniProt P24666); assay: LMPTP phosphatase inhibitors, dose response, biochemical, OMFP substrate, fluorescence intensity, set 2 (AID 743307); assay type: functional
[32] = target: T2, Low molecular weight phosphotyrosine protein phosphatase; assay: LMPTP phosphatase inhibitors, colorimetric pNPP readout, dose response, orthogonal assay, biochemical, absorbance, pNPP substrate, LMPTP-A isoform, set 2 (AID 743308); assay type: functional
[33] = miR-122 activators in hepatoma reporter cells, dose response, cell-based, Huh7 psiCHECK-miR122, Renilla luciferase, cherry-picked (AID 651956); assay type: functional;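 also: huh7 hepatoma cells stably carrying a psiCHECK-2 miR-122 sensor plasmid; renilla luciferase signal reporting endogenous miR-122 activity after 48 h compound exposure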
[34] = HEK293 cell viability, dose response, counter-screen for EBV LMP1 inhibitor project, dry powder, set 2 (AID 624374); assay type: functional
[35] = PAX2 cell-based inhibition, dose response, selectivity assay for PAX8 inhibitor project, plate reader, dry powder samples (AID 743048); assay type: functional;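 also: HEK293 cells carrying a WT1 promoter luciferase reporter driven by expressed Pax2; potency is for inhibition of Pax2 driven reporter signal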
[36] = A549 cell cytotoxicity, dose response, cytotoxicity control, 24 h, CellTiter-Glo luminescence, cherry-picks (AID 1053115); assay type: functional, cell-based; conditions: A549, 24 h
[37] = PAX5 activity inhibitors, dose response, selectivity assay for PAX8 inhibitor project, cell-based, plate reader, dry powder samples (AID 743047); assay type: functional;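 also: HEK293 cells carrying a Pax5 driven CD19 promoter luciferase reporter; potency of inhibitors that lower reporter luminescence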
[38] = HEK293T cytotoxicity, dose response, cytotoxicity control for miR-122 modulator project, cell-based, inhibitor set, cherry-pick, set 2 (AID 720697); assay type: functional
[39] = cytotoxicity in OV-90 ovarian cancer cells, dose response, PAX8 inhibitor project, cell-based, plate reader, dry powder, SA8 (AID 743149); assay type: functional
[40] = cytotoxicity dependent on PAX8, dose response, cell-based, plate reader, dry powder (AID 743049); assay type: functional
[41] = A549 cell cytotoxicity, dose response, CellTiter-Glo luminescence, dry powder, set 17 (AID 1117284); assay type: functional, cell-based

Chain of Paired box protein Pax-8 (Q06710 whole entry): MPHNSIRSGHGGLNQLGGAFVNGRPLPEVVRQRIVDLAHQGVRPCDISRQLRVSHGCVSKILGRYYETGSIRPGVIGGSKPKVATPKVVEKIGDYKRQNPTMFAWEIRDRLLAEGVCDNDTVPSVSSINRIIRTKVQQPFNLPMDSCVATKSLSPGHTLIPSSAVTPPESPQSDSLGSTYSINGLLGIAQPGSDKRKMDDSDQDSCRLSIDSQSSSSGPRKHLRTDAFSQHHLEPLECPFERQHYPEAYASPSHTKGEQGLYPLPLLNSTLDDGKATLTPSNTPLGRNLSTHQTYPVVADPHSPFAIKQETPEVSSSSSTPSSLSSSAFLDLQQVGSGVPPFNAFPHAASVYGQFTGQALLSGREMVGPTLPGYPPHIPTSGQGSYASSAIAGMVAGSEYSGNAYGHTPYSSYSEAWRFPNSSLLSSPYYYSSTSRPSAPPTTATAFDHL
T2 sequence (P24666 whole entry, canonical isoform): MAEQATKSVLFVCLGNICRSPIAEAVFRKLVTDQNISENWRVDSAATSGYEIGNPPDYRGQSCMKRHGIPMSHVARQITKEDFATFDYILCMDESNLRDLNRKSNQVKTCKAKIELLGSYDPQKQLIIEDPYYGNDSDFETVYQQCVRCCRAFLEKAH
Chain of RNA-editing ligase 1, mitochondrial (P86926 whole entry): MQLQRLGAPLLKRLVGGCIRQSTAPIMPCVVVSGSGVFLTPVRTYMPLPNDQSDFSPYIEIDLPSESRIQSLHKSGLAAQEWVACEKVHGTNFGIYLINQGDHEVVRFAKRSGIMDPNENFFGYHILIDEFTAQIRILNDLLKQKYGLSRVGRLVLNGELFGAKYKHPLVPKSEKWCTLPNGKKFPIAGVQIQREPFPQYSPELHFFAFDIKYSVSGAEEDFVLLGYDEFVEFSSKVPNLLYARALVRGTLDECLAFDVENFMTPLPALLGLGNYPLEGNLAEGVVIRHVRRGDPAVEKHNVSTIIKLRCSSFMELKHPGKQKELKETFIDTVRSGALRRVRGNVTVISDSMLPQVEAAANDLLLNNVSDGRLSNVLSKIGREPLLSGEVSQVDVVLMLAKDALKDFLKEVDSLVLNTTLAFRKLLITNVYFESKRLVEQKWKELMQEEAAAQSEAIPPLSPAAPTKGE
Chain of Protein Tat (P04608 whole entry): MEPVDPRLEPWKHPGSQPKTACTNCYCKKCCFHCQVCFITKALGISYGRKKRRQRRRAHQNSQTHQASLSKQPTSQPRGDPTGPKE

COc1ccccc1OCCOCCOc1ccccc1Cl
IC50 [1]: > 109 µM (inactive)
IC50 [2]: > 83.3 µM (inactive)

O=C(CCn1c(=S)oc2ccccc21)NC1CCCCC1
IC50 [3]: > 67.6 µM (inactive)
EC50 [4]: > 67.6 µM (inactive)

Cc1ccc(C)c(S(=O)(=O)Nc2ccccc2C(=O)Nc2ccccc2N2CCOCC2)c1
CC50 [5]: > 40 µM (active)

COC(=O)C1=C(C)N(Cc2ccc(C(F)(F)F)cc2)C(NCc2ccccc2C(F)(F)F)=NC1c1cccc(Cl)c1 (centres undefined)
IC50 [6]: > 96.6 µM (inactive)

CCOc1ccccc1N1C(=O)CC(Nc2ccc(N3CCOCC3)cc2)C1=O (centres undefined)
IC50 (Protein Tat): 16.3 µM (inconclusive)
IC50 [7]: > 50.6 µM (active)

Cc1ccc(C(C)C)c(OCCn2c(S)nc3ccccc32)c1
AC50 [8]: 22 µM (active)

Cc1cccc(-c2ccc([C@H]3[C@H]4CN(S(=O)(=O)c5cccc(C)c5)CCCCN4[C@H]3CO)cc2)c1
AC50 (Paired box protein Pax-8): 7.45 µM (active)
AC50 [9]: 43.5 µM (active)
AC50 [10]: 67.1 µM (active)
AC50 [11]: 44.6 µM (active)
AC50 [12]: 2.07 µM (active)
AC50 [13]: > 100 µM (inactive)
AC50 [14]: 2.62 µM (active)
AC50 [15]: 1.19 µM (active)
AC50 [16]: > 39 µM (inactive)
AC50 [17]: 1.42 µM (active)

CN1CCCC(CC2c3ccccc3Sc3ccccc32)C1 (centres undefined)
IC50 [18]: > 10 µM (inactive)
IC50 [19]: 4.7 µM (active)
IC50 [20]: > 11.1 µM (inactive)
IC50 [21]: 3.49 µM (active)
IC50 [22]: > 20 µM (inactive)
IC50 [23]: 15.1 µM (inactive)
IC50 [24]: > 40 µM (inactive)
IC50 [25]: > 20 µM (inactive)
IC50 [26]: > 10 µM (inactive)
IC50 [27]: 6.43 µM (inactive)
IC50 [28]: > 20 µM (inactive)
IC50 [29]: 8.68 µM (inactive)
IC50 [30]: > 40 µM (inactive)

Fc1ccc(-c2cc(NCCCN3CCCCC3)c3ccccc3n2)cc1
IC50 [31]: 1.4 µM (active)
IC50 [32]: 3.27 µM (active)

C[C@@H]1CN([C@@H](C)CO)S(=O)(=O)c2ccc(C#C[C@@H](C)O)cc2O[C@H]1CN(C)Cc1ccc(-c2ccccc2)cc1
AC50 [33]: 20.3 µM (active)
AbsAC35 [34]: 211.64 µM
AC50 (Paired box protein Pax-8): 6.61 µM (active)
AC50 [35]: > 70 µM (inactive)
AC50 [36]: 53.4 µM (active)
AC50 [37]: 41.3 µM (active)
AC50 [38]: 8.22 µM (active)
AC50 [39]: 17.7 µM (active)
AC50 [40]: > 70 µM (inactive)
AC50 [41]: 46.1 µM (active)
